Results on 4 molecules are retold here after patent publication US20230310387A1, “Reduced Dose Metaxalone Formulations” (Primus Pharmaceuticals, Inc., priority 2023, published 2023).

Data set [1] can be described thus: Particle Size Analysis by Malvern Method. It counts as physicochemical. The settings on record: micronized metaxalone. The source says: In one subembodiment, when the formulation is characterized based on metaxalone particle size, at least 50%, 70%, or 90% of the micronized particles of metaxalone are smaller than 200, 100, or 75 microns when tested according to the Malvern Method (i.e. laser diffraction). Alternatively or in addition, at least 30%, 40%, or 50% of the micronized particles are less than 50, 30, or 20 microns. when tested according to the Malvern Method. Tables 2a and 2b describes representative particle sizes for the micronized and non-micronized metaxalone particles used in the formulation of Table 1. [table]

Data set [2] in a line: Particle Size Analysis by Sieve Method. The settings on record: non-micronized metaxalone. The format is physicochemical. The source says: The Sieve Method refers to the method for particle size analysis described in American Society for Testing and Materials (ASTM) standard C 136 (in effect on Jan. 1, 2019). In the method a representative weighed sample is poured into the top sieve which has the largest screen openings. Each lower sieve in the column has smaller openings than the one above. At the base is a round pan, called the receiver. The column is typically placed in a mechanical shaker. such as the sonic sifter available from Endecotts (London, UK). See Endecotts website at https://www.endecotts.com/products/sieve-shakers/sonic-sifter/product-specifications/. The shaker shakes the column, usually for some fixed amount of time. After the shaking is complete the material on each sieve is weighed. The mass of the sample of each sieve is then divided by the total mass to give a percentage retained on each sieve. The size of the average particle on each sieve is then analyzed to get a cut-off point or specific size range, which is then captured on a screen. Tables 2a and 2b describes representative particle sizes for the micronized and non-micronized metaxalone particles used in the formulation of Table 1. [table]

Regarding `Cc1cc(C)cc(OCC2CNC(=O)O2)c1` (stereo not drawn) [Lot2a, metaxalone], in data set [1], the “10% of the Particles (d10)” value is given as 0.81 µ, the “50% of the Particles (d50)” value was determined as 10.11 µ and the “90% of the Particles (d90)” value is on record as 49.91 µ.

For `Cc1cc(C)cc(OCC2CNC(=O)O2)c1` (single isomer, unassigned) [Lot2d, metaxalone], in data set [2], the “% Retained on Sieve # 30” value was determined as 1%, the “% Retained on Sieve # 120” value was determined as 61% and the “% Retained on Sieve # 325” value was 28%.

Turning to `Cc1cc(C)cc(OCC2CNC(=O)O2)c1` (single isomer, unassigned) [Lot2c, metaxalone], in data set [2], the “% Retained on Sieve # 30” value is listed as 1%, the “% Retained on Sieve # 120” value stood at 63% and the “% Retained on Sieve # 325” value amounted to 29%.

For the molecule `Cc1cc(C)cc(OCC2CNC(=O)O2)c1` (single isomer, unassigned) [Lot2b, metaxalone], in data set [2], the “% Retained on Sieve # 30” value worked out at 1%, the “% Retained on Sieve # 120” value was 49% and the “% Retained on Sieve # 325” value came out at 30%.
